Results reported in US7713967B2, “Therapeutic substituted hydantoins, and related compounds” (Allergan, Inc., priority 2008, dated 2010).

Tested on: lashes and adjacent hairs
Experiment: Clinical observation of lashes and adjacent hairs in glaucoma patients treated in one eye
Format: in vivo
Description: In the course of treating patients having glaucoma, treatment may only be appropriate in one eye. […] The lash appearance on the lids of the treated eyes would have appeared quite attractive if it represented a bilateral phenomenon. As a result of its asymmetric nature, the long lashes on one side could be construed as disturbing from a cosmetic standpoint. A systemic examination was preformed as a result of the asymmetric phenomenon. It soon became apparent that this altered appearance was not an isolated finding. […] Definite differences could be identified to varying degrees in the lashes and adjacent hairs of all patients who were taking the drug on a unilateral basis for longer than 6 months.
The changes in the lashes were apparent on gross inspection in several patients once attention was focused on the issue. In those with light colored hair and lashes, the differences were only seen easily with the aid of the high magnification and lighting capabilities of the slit lamp biomicroscope. In the course of glaucoma follow-up examination, attention is generally immediately focused on the eye itself. As a result of the high power magnification needed only one eye is seen at a time and the eye is seen at a high enough power that the lashes are not in focus. […]

CCNC(=O)CCC/C=C\C[C@@H]1[C@@H](/C=C/[C@@H](O)CCc2ccccc2)[C@H](O)C[C@@H]1O [bimatoprost]
lash appearance in the treated eye versus the non-treated eye (glaucoma patient treated in one eye only): longer, thicker, and fuller
hair growth in treated versus control areas (multiple parameters of hair appearance, many subjects): stimulated
